± gives the expanded uncertainty stated by the source.
Settings: Gas, Hot wire method

[Ar] [argon]
Settings	thermal conductivity [W/m/K]
304.8 K, 1020 kPa	0.01821 ± 0.00045
304.8 K, 1560 kPa	0.01835 ± 0.00045
304.8 K, 2320 kPa	0.01869 ± 0.00046
304.8 K, 2590 kPa	0.01877 ± 0.00046
304.8 K, 4470 kPa	0.01959 ± 0.00048
329 K, 1200 kPa	0.0193 ± 0.00048
329 K, 1270 kPa	0.01953 ± 0.00048
329 K, 1960 kPa	0.01978 ± 0.00049
329 K, 2340 kPa	0.01995 ± 0.00049
329 K, 3030 kPa	0.02016 ± 0.0005
329 K, 3630 kPa	0.0203 ± 0.0005
329 K, 5980 kPa	0.02118 ± 0.00052
329 K, 7320 kPa	0.02192 ± 0.00054
360.05 K, 1240 kPa	0.02086 ± 0.00051
360.05 K, 1560 kPa	0.02098 ± 0.00051
360.05 K, 1640 kPa	0.02104 ± 0.00051
360.05 K, 2240 kPa	0.02129 ± 0.00052
360.05 K, 3200 kPa	0.02158 ± 0.00053
360.05 K, 4160 kPa	0.02192 ± 0.00054
360.05 K, 8720 kPa	0.0239 ± 0.00059
389.3 K, 1390 kPa	0.02227 ± 0.00054
389.3 K, 2140 kPa	0.02255 ± 0.00055
389.3 K, 2780 kPa	0.02276 ± 0.00055
389.3 K, 3330 kPa	0.02288 ± 0.00056
389.3 K, 3560 kPa	0.02304 ± 0.00056
389.3 K, 4190 kPa	0.02323 ± 0.00057
389.3 K, 5350 kPa	0.02353 ± 0.00057
389.3 K, 6050 kPa	0.02385 ± 0.00058
389.3 K, 6660 kPa	0.02405 ± 0.00059
389.3 K, 7500 kPa	0.0243 ± 0.00059
389.3 K, 8260 kPa	0.02466 ± 0.0006
389.3 K, 8500 kPa	0.02463 ± 0.0006
417.5 K, 1210 kPa	0.02336 ± 0.00057
417.5 K, 1400 kPa	0.02343 ± 0.00057
417.5 K, 2110 kPa	0.02369 ± 0.00057
417.5 K, 2740 kPa	0.02395 ± 0.00058
417.5 K, 3420 kPa	0.02415 ± 0.00059
417.5 K, 4130 kPa	0.02432 ± 0.00059
417.5 K, 4800 kPa	0.02459 ± 0.0006
417.5 K, 5470 kPa	0.02478 ± 0.0006
417.5 K, 6180 kPa	0.02504 ± 0.00061
417.5 K, 6890 kPa	0.02521 ± 0.00061
417.5 K, 7580 kPa	0.0256 ± 0.00062
417.5 K, 8270 kPa	0.02577 ± 0.00063
475.7 K, 1090 kPa	0.02562 ± 0.00062
475.7 K, 1410 kPa	0.02575 ± 0.00062
475.7 K, 2120 kPa	0.02608 ± 0.00063
475.7 K, 2790 kPa	0.02636 ± 0.00064
475.7 K, 3520 kPa	0.02652 ± 0.00064
475.7 K, 4250 kPa	0.02683 ± 0.00065
475.7 K, 5010 kPa	0.02692 ± 0.00065
475.7 K, 6100 kPa	0.02742 ± 0.00066
475.7 K, 7980 kPa	0.02789 ± 0.00068
